Measured values taken from the NIST ThermoML archive (doi:10.1021/je501126j).

Legend:
[1] = 101 kPa, Liquid, Vibrating tube method
[2] = wn = mass fraction of the nth substance listed; details: 101 kPa, Liquid, Vibrating tube method

CC(O)CN(C)C (stereo not drawn) [1-(dimethylamino)-2-propanol]
[1]
Details	mass density [kg/m3]
298.15 K	845.2
303.15 K	840.4
308.15 K	835.6
313.15 K	830.7
318.15 K	825.9
323.15 K	820.9

CC(O)CN(C)C (stereo not drawn) [1-(dimethylamino)-2-propanol] + O
mass density [kg/m3], [2]
Details	298.15 K	303.15 K	308.15 K	313.15 K	318.15 K	323.15 K
w1 = 0.1	992.5	990.8	988.9	986.7	984.2	982.1
w1 = 0.2	989.5	987.2	984.6	981.9	979	976
w1 = 0.3	984.6	981.4	978	974.5	970.9	967.2
w1 = 0.4	976.7	972.8	968.7	964.6	960.5	956.3
w1 = 0.5	967.2	962.9	958.5	954.1	949.4	944.8
w1 = 0.55	958.7	954.2	949.7	945	940.4	935.6
w1 = 0.6	948.9	944.2	939.6	934.8	930	925.2
w1 = 0.71	929.1	924.3	919.5	914.7	909.8	904.9
w1 = 0.81	905.6	900.9	896	891.1	886.2	881.2
w1 = 0.91	876.5	871.1	866.9	862	857.1	852.1
w1 = 0.96	860.5	855.7	850.8	846	841	836.1
w1 = 1	845.2	840.4	835.6	830.7	825.9	820.9
